What was measured:
MCF-7 cells [1] = test: Alamar blue fluorescence 24-hour cell death assay, MCF-7; format: cell-based, human; settings: MCF7, 24 hour incubation, Alamar Blue (FIG. 4)
Procedure: ALAMAR BLUE/RAPTINAL ASSAY: Live cells maintain a reducing environment. The non-fluorescent cell permeable ingredient of Alamar Blue® (resazurin) is taken up by cells. In living cells, it is reduced to the fluorescent compound resorufin. Using a standard curve of cell number versus fluorescence the number of live cells in a test sample can be determined. At high concentrations raptinal kills 100% of cells. The vehicle in which the test compound is dissolved is not toxic. Thus, after subtracting the blank for medium alone, the fluorescence reading for vehicle corresponds to 100% viable cells and the signal for raptinal corresponds to 0% viable cells. […]
ALAMAR BLUE RAPTINAL ASSAYS: Cells were plated at 4,000-10,000 cells/well (96 well plate), usually in 50 μl of medium. […] After 24 hours Alamar Blue reagent was added and fluorescence in the wells was read (BMG PheraStar or Molecular Devices Spectra Max M3 Microplate Reader). % relative death was determined by setting the reading for raptinal-treated cells to 100% dead cells and the reading for vehicle-treated cells to 0% dead cells.
Preparative gram-scale chiral separation of (±)-1 yields enantiopure (R)-1 and (S)-1 with opposite optical rotations (Scheme 5). […] Values were obtained after 24-hour incubation utilizing Alamar blue fluorescence assay normalized to live and death controls (vehicle and raptinal treated). […]

[2] = system: partially BHPI-resistant T47D clones 1, 3, 8, and 11; test: Growth of partially BHPI-resistant T47D clones (MTS); format: cell-based, human; settings: 100 nM and 1 μM, 4 days
Procedure: ERα containing T47D human breast cancer cells able to survive in 1 μM BHPI were selected by clonal outgrowth. The effect of 100 nM and 1 μM BHPI and (−)-105 on growth of the (BHPI-sensitive) parental T47D cells and partially BHPI-resistant T47D clones 1, 3, 8, and 11 was evaluated. 4,000 cells/well were plated. Cell number was determined by MTS assay from a standard curve of absorbance versus cell number. […] Thus, in 4 days (−)-105 killed some, but not all, of the resistant cells.

[3] = system: MYS and MDG cells (MCF-7 with Y537S or D538G ERα); test: MYS-luc / MDG-luc orthotopic and metastatic tumor models; format: in vivo, mouse
From the text: FIG. 41. […]
FIG. 43. SERK-F6-mediated eradication of MYS/MDG tumors is dependent on quantitative cell killing. a-b, MYS-luc. orthotopic tumors were established in NSG ovariectomized mice (no E2 pellet, ˜45 days to establish) and dosed daily as indicated (n=5-6). b, Treatment of MYS-luc. tumors were stopped after 21 daily doses of SERK-F6 and mice tumor burden was tracked via bioluminescence. […]

MCF-7 cells [4] = format: cell-based
Procedure: FIG. 36. Discovery of SERK-F6 (also known as, C(−)-105, (−)-105, (R)-105, (−)-1, or (R)-1), a compound that kills ERα-positive cancer cells. a, Chemical structures of BHPI and racemic compound 1 (i.e. (±)-1), and their cytotoxic activity on T47D breast cancer cells after 24-hour incubations with concentrations as indicated in nM. Cells were stained with annexin V-FITC and PI dyes prior to analysis via flow cytometry. […] Cells were incubated with SERK-F6 or positive control, Raptinal, for 24 hours and then stained with annexin V-FITC and PI dyes and analyzed via flow cytometry. Error bars represent S.E.M of 3 independent replicates. c, IC50 values of SERK-F6 after 24-hour incubation against a panel of cancer cell lines grouped by their reported ERα status. Cell viability was measured by Alamar blue fluorescence and set relative to a vehicle control and a quantitative dead control treated with Raptinal. Error bars represent S.E.M of 3 independent experiments. d, Crystal violet staining of T47D cells after 24-hour incubations with compounds and concentrations as indicated. […] Cell number was determined by MTS.
Through a medicinal chemistry campaign, (±)-1 was discovered to show an unexpected cytotoxic phenotype (FIG. 36A). […] The dose dependent activity of SERK-F6 was determined against a panel of cancer cell lines (FIG. 36C and FIG. 37A) for ERα.

Structure (SMILES): O=C1Nc2c(C(F)(F)F)cccc2C1(c1ccc(O)cc1)c1ccc(OC(F)(F)F)cc1 (single isomer, unassigned; (-)) [(−)-105, 3-(4-hydroxyphenyl)-3-(4-(trifluoromethoxy)phenyl)-7-(trifluoromethyl)indolin-2-one]
- ability to kill compared with BHPI and 01-15 (MCF-7 cells [1]): superior to BHPI and 01-15
- growth of the BHPI-resistant clones [2]: completely blocked the growth of the resistant clones
- effect on metastatic tumor burden ([3]; metastatic model): eradicates metastatic tumor burden
- effect on MYS / MDG tumors ([3]; mouse, in vivo): Dramatic tumor regressions
- cytotoxicity to ERα positive MCF-7 cells (MCF-7 cells [4]): cytotoxic
- death of MCF-7 cells (MCF-7 cells [4]; FIG. 10): induces dose-dependent death

From patent US12180159B2, “Activators of the unfolded protein response” (The Board of Trustees of the University of Illinois, priority 2018, dated 2024)
